In one data set the test system is phospho-Tau (Ser404). In words: Phospho-Tau (Ser404) levels in STHdh 7/7 cells by immunocytochemistry. Format: cell-based, mouse. From the text: Effect of Compound 4 on Phospho-Tau (Ser396) levels - ST HDH Q7/7 (CH00097, Coriell Institute) striatal derived cell line from a knock in transgenic mouse containing HTT loci with a humanized Exon 1 containing 7 polyglutamine repeats. Diffuse mHTT quantified with immunocytochemistry as described in Example 33 with the exception that instead of 3B5H10 antibody for staining mHTT, phospho-Tau (Ser404) polyclonal antibody (ThermoFisher, Catalog 44-758G) was used to stain phospho-Tau (Ser396) and no heat shock was used.

In data set [1] the test system is zebrafish larvae. Briefly: Zebrafish MPP+ model, sleep parameters. The data set is classed as in vivo. The conditions noted are these: co-incubation with MPP+. On the procedure:
(§1) Six groups were included in each experiment. Immediately after spawning, 40 embryos per group were allocated to a 24-well plate and system water (solvent) was added to all wells. For assessment of neuroprotective potential, Compound 4 was added for a final concentration of 1, 10 and 20 µM (column 4-6). From the following day at 24 hpf, Compound 4 was co-incubated with 500 µM MPP+. MPP+ was prepared immediately prior to incubation and solutions were changed daily. At 120 hpf, drug treatment and MPP+ exposure was ceased and a 3X wash was performed with system water. Larvae were then relocated to 96-well plates for behavioral recording and placed in a separate recording room for 24-hour acclimation. Prior to behavioral recording, wells were fully replenished system water.
(§2) Naive group was exposed to solvent only. Vehicle group was exposed to solvent and vehicle corresponding to the vehicle of 20 µM drug solution (0.02% DMSO). MPP+ positive control was exposed to solvent and 500 µM MPP+. All compound groups were treated with the respective vehicle and respective concentration of compound 4.
Behavioral data was recorded from 1 p.m. on 6 dpf until shortly after wakening on 7 dpf. The recording consisted of a photomotor assay in which lights switch off and on in 30-minute intervals between 1 p.m. and 6 p.m., producing a consistent photomotor response. […]

Data set [2] has as its system STHdh 111/111 striatal cells. Briefly: Cell viability (CellTiter Glo) of heat shocked STHdh 111/111 striatal cells. The conditions noted are these: Mus musculus, STHdh 111/111; 10 µM; 48 hours treatment; read-out: Cell Viability striatal cells 3h heat shocked. The data set is classed as cell-based, mouse.
Data set [3] deals with zebrafish larvae. Briefly: Zebrafish MPP+ motility model, photomotor assay. Format: in vivo. The procedure:
MPP+ selectively targets dopaminergic neurons; the putative mechanism is induction of K+ efflux, cell membrane hyperpolarization and inhibition of neuronal firing. This ultimately leads to an inhibition of complex I, a decrease in ATP production and promotion of the generation of reactive oxygen species upon accumulation in the mitochondria (3). The observed phenotype following exposure to 500 µM from 24 hours post fertilization (hpf) to 120 hpf is characterized by a decrease in movement during lights-on phases of a photomotor assay. In unpublished data below, representative locomotor perturbations of the distance moved and movement frequency is shown.
as §1, §2
Behavioral data was recorded from 1 p.m. on 6 dpf until shortly after wakening on 7 dpf. The recording consisted of a photomotor assay in which lights switch off and on in 30-minute intervals between 1 p.m. and 6 p.m., producing a consistent photomotor response. […] Upon lights being turned on again, the larvae cease movement followed by a return to baseline. This cycle is repeated five times. Following the last lights-off phase, constant illumination is presented until lights turn off at 10 p.m. for the night. Lights turn on again at 8 a.m. the following day.
Average movement frequency was measured during 30-minute lights-on phases of photomotor assay. Movement bouts were defined as initiated when velocity exceeded a threshold of 2 mm/s and ceased when velocity fell below 1 mm/s.
Distance moved (mm) was defined as the average distance moved during 30-minute lights-on phases of photomotor assay.
Data was obtained using EthoVision XT (Version 11.5.2016, Noldus) and exported to Microsoft Excel for data analysis. […]

The nature of data set [4]: Pharmacokinetics, plasma and brain concentration by UHPLC-TOF. Format: in vivo, mice. The conditions noted are these: mouse, in vivo. On the procedure:
Compound 22 is an analog of Compound 7. […] Compound 22 pharmacokinetic properties was measured in three male CD1 mice at several timepoints. Compound 22 was dissolved in 10% DMSO, 10%, cremaphor, and 80% saline. The tested dose was 33.3 mg/kg body weight. Brain tissue was homogenized and protein precipitated with acetonitrile. […] As such, Compound 22 was selected for testing in an animal model of HD the R6/2 model. As described below, Compound 22 and its analogs were further tested for their effects on striatal cell viability and effects of mHTT levels.

A further data set has as its system phospho-Tau (Ser396). In words: Phospho-Tau (Ser396) levels in STHdh 7/7 cells by immunocytochemistry. The data set is classed as cell-based, mouse. The procedure:
Effect of Compound 4 on Phospho-Tau (Ser396) levels - ST HDH Q7/7 (CH00097, Coriell Institute) striatal derived cell line from a knock in transgenic mouse containing HTT loci with a humanized Exon 1 containing 7 polyglutamine repeats. Immunocytochemistry was conducted as described in Example 33 with the exception that instead of 3B5H10 antibody for staining mHTT, phospho-Tau (Ser396) polyclonal antibody (ThermoFisher, Catalog 44-752G) was used to stain phospho-Tau (Ser396).

In the next data set the test system is Exon1 Q46. Briefly: Circular dichroism of Exon1 Q46, predominantly α-helical state. The data set is classed as biochemical. The conditions noted are these: Exon1 Q46; conc. compound 0.647 µM. The procedure: Protein samples were diluted with buffer to 7.5 µM prior to Circular Dichroism (CD) measurements. Measurements were conducted at room temperature.
Four spectra at each measurement were taken every 1 nm from 200 to 260 nm, scanning at 50 nm/min with an averaging time of 1 sec. Spectra were obtained from samples in 20 mM phosphate, pH 7.4. Ten scans were averaged for each sample spectrum
Single-wavelength readings at 222 nm were obtained. After subtraction of the Trx contribution, the α-helical content of Httex1 was estimated from its mean residue ellipticity (MREHttex1) at 222 nm. This calculation was conducted as described by Bravo-Arredondo (Bravo-Arredondo, J.M. et al., J Biol Chem. 2018 Dec 21;293(51):19613-19623).
MRE Exon-1 […] and Q46 (Mean Residue Ellipticity) was measured every 1 sec for 300 sec; the 301 readings for each sample were averaged and MRE Trx subtracted. The number of amino acids in each sample to experience a change in helicity was estimated using a previously developed helix-coil transition model, which gave the change in fraction of helicity (ΔfHelix) by the following equation: […]
where MRE Exon1 Q26 or Q46 (MREHttex1 in the formula) describes the helix-coil transition, obtained from the difference between MRE Eon1 Q26 or Q46 at 222 nm of the fusion protein at the given temperature (in our case 37° C.) and the product of MRE Trx at 222 nm at the same temperature and the fraction of residues comprised by Trx in that particular construct, and
In order to calculate an equilibrium of the two states model, percent α-helicity was calculated using the relation of MREHttex1 = 0 and -34700 (deg cm^2 dmol^-1) for 0% and 100% helicity, respectively.
The CD measurements protocol for Compound 101 was the same as outlined above except that from 206 nm - 210 nm and 220 nm - 224 nm, the step size was 0.2 nm, and the bandwidth was 1 nm.

For another data set, the system named is STHdh 111/111. Briefly: Morphology of striatal cells expressing mutated huntingtin. Format: cell-based, mouse. As to conditions: versus not treated STHdh 111/111.
The target in data set [5] is T1, mHTT (Mus musculus, UniProt P42859, DEL28-30/G47A/INS49LLPQPQPP/INS60VA/L56P/P40L). Briefly: Diffuse mHTT levels in heat shocked STHdh 111/111 striatal cells by immunocytochemistry.
Method: Pre-Treatment of striatal cell line - First the medium was removed and new DMEM (DMEM, high glucose, HEPES, no phenol red) medium, supplemented with 10% fetal bovine serum (FBS), 1% Penicillin-Streptomycin, containing 10 µM compound was added. The cells were incubated at 33° C. for 24 hours.
Heat shock - Cells were heat shocked for 3 hours at 41° C.
Treatment - Medium was removed and new DMEM (DMEM, high glucose, HEPES, no phenol red) medium, supplemented with 1% fetal bovine serum (FBS), 1% Penicillin-Streptomycin, containing 10 µM compound was added. The cells were incubated at 33° C. for 48 hours.
Staining - Cells were permeabilized with 0.3% Triton X-100 in 4° C. PBS (pH 7.4 from ThermoFisher) for 10 minutes. Then the cells were washed two times with 4° C. PBS. Subsequently, cells are blocked with 3% NGS (normal goat serum from Thermo Fisher) in 4° C. PBS for 1 hour. Cells were incubated with primary antibodies in blocking buffer (PBS, 3% NGS, 0.02% NaN3) over night at 4° C. Primary antibodies were mouse antipolyglutamine monoclonal antibody 3B5H10 (Sigma-Aldrich) at 1:250 dilution and Guinea Pig anti-MAP2 polyclonal antibody (Synaptic Systems) at 1:500 dilution. 3B5H10 binds to diffuse mHTT. Diffuse mHTT is a monomeric and small oligomeric mHTT.
Cells were washed 2 times with 4° C. PBS, and then incubated with secondary antibodies at 1:2000 dilution in blocking buffer for 1 hour at room temperature. […] Cells were washed 2 times with 4° C. PBS, and then the nuclei were counterstain with DAPI (ThermoFisher) for 10 min at room temperature in the dark. Cells were washed 2 times with 4° C. PBS, and then 4° C. PBS was added to cells and then images were acquired.
Fluorescence Imaging - Imaging sessions were performed on a confocal microscope system (Carl Zeiss Microscopy) equipped with a dual spinning disk unit (Yokogawa). All components of the imaging system were controlled via the ZEN 2 software suite (Carl Zeiss Microscopy). The laser lines used were 405 nm, 488 nm and 639 nm to excite DAPI or the respective fluorophores. […] Nested t test was performed to calculate the significance amongst repeated measurements using GraphPad Prism software.
EC 50 value was determined with non-linear regression.
Data set [6] has as its target T1, mHTT. In words: mHTT reduction in STHdh 111/111 cells exposed to autophagy inhibitor NH4Cl or UPS inhibitor MG132. Format: cell-based. Set-up: host or cells: ST HDH Q111/111 mouse striatal derived cell line. As to conditions: striatal cells exposed to MG132. On the procedure:
Invitrogen). […] Staining - Cells were permeabilized with 0.3% Triton X-100 in 4° C. PBS (pH 7.4 from ThermoFisher) for 10 minutes. Then the cells were washed two times with 4° C. PBS. Subsequently, cells are blocked with 3% NGS (normal goat serum from Thermo Fisher) in 4° C. PBS for 1 hour. […] Primary antibodies were mouse antipolyglutamine monoclonal antibody 3B5H10 (Sigma-Aldrich) at 1:250 dilution and Guinea Pig anti-MAP2 polyclonal antibody (Synaptic Systems) at 1:500 dilution. For LC3 staining primary antibodies were mouse anti-LC3 mab (5F10) (nanoTools) at 1:500 dilution and Guinea Pig anti-MAP2 polyclonal antibody (Synaptic Systems) at 1:500 dilution. Cells were washed 2 times with 4° C. PBS, and then incubated with secondary antibodies at 1:2000 dilution in blocking buffer for 1 hour at room temperature. […] Fluorescence Imaging - Imaging sessions were performed on a confocal microscope system (Carl Zeiss Microscopy) equipped with a dual spinning disk unit (Yokogawa). […] The fluorescence images obtained of the immunofluorescence labelled tissue sections were quantified with the help of the “Image Processing and Analysis in Java” or short ImageJ software distributed under the GNU General Public License by the NIH (Rueden, C.T. et al., BMC Bioinformatics. 2017 Nov 29;18(1):529), i.e. the edition used was the Fiji distribution (Schindelin, J. et al., Nature methods. 2012 Jun 28;9(7):676-82). […]

Where [7] appears, read: 1, 10 and 20 µM with 500 µM MPP+.

The results in this text go back to patent US20230218573A1, “INDOLE COMPOUNDS FOR THE TREATMENT OF NEURODEGENERATIVE DISEASES” (GALYAN BIO, INC., priority 2020, published 2023).

“Also recorded” adds a separate entry of the source.

T1 sequence (P42859 with tags, fused parts or gaps DEL28-30/P40L/G47A/INS49LLPQPQPP/L56P/INS60VA): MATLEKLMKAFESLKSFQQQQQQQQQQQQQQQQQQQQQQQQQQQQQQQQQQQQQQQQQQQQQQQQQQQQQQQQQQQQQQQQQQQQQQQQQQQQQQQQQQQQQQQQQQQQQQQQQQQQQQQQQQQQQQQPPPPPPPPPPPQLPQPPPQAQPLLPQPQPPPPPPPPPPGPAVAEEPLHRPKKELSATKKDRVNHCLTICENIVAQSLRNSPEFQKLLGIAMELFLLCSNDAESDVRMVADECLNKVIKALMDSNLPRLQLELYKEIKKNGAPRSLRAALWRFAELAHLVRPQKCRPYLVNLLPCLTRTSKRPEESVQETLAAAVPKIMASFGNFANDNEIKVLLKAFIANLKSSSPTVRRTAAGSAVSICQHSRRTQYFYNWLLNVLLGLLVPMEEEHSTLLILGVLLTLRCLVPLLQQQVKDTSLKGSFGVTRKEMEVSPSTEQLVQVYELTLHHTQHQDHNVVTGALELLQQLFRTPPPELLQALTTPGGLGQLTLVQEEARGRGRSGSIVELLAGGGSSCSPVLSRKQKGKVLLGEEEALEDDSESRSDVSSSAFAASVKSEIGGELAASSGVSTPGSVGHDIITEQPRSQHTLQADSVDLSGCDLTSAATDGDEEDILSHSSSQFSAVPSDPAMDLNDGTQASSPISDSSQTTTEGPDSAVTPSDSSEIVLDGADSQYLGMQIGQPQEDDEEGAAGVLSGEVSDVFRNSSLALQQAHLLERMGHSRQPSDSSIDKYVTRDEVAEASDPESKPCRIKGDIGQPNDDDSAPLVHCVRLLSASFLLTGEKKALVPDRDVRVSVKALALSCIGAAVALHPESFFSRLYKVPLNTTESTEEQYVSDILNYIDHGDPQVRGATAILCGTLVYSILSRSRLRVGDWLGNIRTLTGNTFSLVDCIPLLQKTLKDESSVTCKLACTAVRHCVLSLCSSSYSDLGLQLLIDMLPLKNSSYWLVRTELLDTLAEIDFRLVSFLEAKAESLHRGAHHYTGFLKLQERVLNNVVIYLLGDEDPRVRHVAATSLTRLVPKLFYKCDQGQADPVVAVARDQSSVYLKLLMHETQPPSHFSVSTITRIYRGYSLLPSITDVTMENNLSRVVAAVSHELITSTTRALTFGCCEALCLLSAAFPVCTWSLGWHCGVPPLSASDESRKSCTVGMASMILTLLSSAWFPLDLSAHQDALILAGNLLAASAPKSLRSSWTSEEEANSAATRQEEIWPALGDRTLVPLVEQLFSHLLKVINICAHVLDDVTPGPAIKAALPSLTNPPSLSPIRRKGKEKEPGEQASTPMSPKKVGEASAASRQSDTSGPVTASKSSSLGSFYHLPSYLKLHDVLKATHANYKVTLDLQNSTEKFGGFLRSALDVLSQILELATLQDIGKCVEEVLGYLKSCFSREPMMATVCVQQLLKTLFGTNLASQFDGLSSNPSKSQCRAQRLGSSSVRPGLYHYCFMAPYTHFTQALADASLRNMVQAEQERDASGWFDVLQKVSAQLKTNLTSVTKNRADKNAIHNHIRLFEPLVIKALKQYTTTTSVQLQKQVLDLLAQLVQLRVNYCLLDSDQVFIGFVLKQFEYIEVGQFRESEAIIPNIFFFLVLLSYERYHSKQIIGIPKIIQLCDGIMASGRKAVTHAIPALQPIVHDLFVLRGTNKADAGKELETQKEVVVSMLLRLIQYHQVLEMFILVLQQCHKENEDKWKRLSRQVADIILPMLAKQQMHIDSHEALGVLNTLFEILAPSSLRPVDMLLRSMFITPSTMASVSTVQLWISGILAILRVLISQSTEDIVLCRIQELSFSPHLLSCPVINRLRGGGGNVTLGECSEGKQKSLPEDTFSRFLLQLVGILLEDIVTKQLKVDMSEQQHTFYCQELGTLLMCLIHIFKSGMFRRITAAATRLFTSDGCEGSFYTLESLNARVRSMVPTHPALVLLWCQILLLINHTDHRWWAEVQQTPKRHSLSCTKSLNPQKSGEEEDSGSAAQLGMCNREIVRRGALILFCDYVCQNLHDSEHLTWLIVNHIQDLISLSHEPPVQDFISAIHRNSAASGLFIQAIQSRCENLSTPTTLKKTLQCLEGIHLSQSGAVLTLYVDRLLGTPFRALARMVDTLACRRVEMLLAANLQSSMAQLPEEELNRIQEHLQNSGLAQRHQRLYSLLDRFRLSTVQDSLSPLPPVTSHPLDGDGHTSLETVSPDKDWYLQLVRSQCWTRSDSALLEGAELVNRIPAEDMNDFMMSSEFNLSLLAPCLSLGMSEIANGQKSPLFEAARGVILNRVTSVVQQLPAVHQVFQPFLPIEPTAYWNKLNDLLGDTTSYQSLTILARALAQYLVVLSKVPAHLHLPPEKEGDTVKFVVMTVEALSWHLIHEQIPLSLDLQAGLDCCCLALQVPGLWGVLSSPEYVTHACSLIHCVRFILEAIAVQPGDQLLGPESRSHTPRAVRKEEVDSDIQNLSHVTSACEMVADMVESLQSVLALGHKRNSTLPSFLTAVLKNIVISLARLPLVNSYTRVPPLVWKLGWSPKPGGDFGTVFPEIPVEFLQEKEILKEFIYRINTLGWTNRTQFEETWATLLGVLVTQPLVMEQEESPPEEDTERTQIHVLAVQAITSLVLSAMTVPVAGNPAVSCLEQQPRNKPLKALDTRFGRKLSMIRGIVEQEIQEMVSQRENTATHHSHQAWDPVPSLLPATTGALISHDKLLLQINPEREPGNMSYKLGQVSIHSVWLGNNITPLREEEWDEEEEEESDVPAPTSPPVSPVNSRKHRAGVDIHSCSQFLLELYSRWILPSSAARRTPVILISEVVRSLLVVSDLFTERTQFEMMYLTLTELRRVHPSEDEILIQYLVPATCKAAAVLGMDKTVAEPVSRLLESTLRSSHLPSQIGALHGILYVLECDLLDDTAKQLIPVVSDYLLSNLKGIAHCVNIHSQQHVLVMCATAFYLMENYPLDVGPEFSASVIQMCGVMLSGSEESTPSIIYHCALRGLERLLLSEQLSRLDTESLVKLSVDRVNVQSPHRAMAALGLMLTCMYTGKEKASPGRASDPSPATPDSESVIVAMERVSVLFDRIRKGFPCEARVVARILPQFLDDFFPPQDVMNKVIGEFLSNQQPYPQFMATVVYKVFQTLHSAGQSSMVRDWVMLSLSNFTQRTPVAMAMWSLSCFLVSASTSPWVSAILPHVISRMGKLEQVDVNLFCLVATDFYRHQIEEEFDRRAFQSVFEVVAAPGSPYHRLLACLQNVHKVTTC

With `CCc1c(C)[nH]c2ccc(C(=O)NCCN(CC)CC)cc12` [Compound 4, N-(2-(diethylamino)ethyl)-3-ethyl-2-methyl-1H-indole-5-carboxamide], the “Phospho-Tau (Ser404) reduced by” value in the data set with phospho-Tau (Ser404) (STHdh 7/7, 10 µM, no heat shock, in comparison to untreated cells) stood at 40%. In addition, in the data set on phospho-Tau (Ser404) (STHdh 7/7 exposed to 10 mM ammonium chloride), the “Phospho-Tau (Ser404) reduction” value is “could not reduce”. Also, the “sleep parameters (sleep fragmentation, sleep ratio, velocity, wake bout duration, sleep bout duration)” value in the data set on zebrafish larvae [1] was “No statistically significant difference; also recorded: does neither reduce nor increase sleep”. In addition, the viability at 10 µM in [2] was found to be 125%. In the data set with zebrafish larvae [3] (setting [7]), the “distance moved, drug treatment groups compared to MPP+” value is “no significant difference” and the “movement frequency, drug treatment groups compared to MPP+” value was “no significant difference”. Further, in the data set with zebrafish larvae [3] (concentrations ~10 µM and ~1 µM with MPP+), the “overall movement during assessment of neuroprotection” value is listed as “subtle increase in overall movement”. Besides, the “crossing of the blood brain barrier” value in data set [4] was “can cross the blood brain barrier”. In addition, the “Phospho-Tau (Ser396) reduced by” value in the data set on phospho-Tau (Ser396) (STHdh 7/7, 10 µM, in comparison to untreated cells) was determined as 26.3%. The “Phospho-Tau (Ser396) reduction” value in the data set on phospho-Tau (Ser396) (STHdh 7/7 exposed to 10 mM ammonium chloride, 5 µM) is listed as “could not reduce”. Further, the “Phospho-Tau (Ser396) reduction” value in the data set on phospho-Tau (Ser396) (STHdh 7/7 exposed to ammonium chloride, 10 µM) worked out at 15.2%. Besides, the “Fraction Helix fH (%)” value in the data set with Exon1 Q46 worked out at 20.0%. Also, the “morphology of STHdh 111/111” value in the data set on STHdh 111/111 was “improved cell viability, dendrite outgrowth and increased cell size”. On mHTT [5], the EC50 was determined as 130 nM. Moreover, the “Diffuse mHTT reduced by” value on mHTT [5] (STHdh 111/111, in comparison to untreated cells) came to 68%.

Consider `O=C(NCCN1CCC1)c1ccc2[nH]c3c(c2c1)CCCC3` [Compound 20], for which, in data set [2], the viability at 10 µM worked out at 118%. For the same molecule, the “mHTT reduction with MG132 in comparison to without MG132” value on mHTT [6] is on record as “less”.
